Where “and” joins values, the source holds several entries; their conditions need not be identical. Equal values may be shown once. Records with an inconclusive call do not appear.
Test system: MX-1 breast xenograft, nude mice, tumor weight T/C
Test: NCI In Vivo Anticancer Drug Screen. Data for tumor model Human Mammary Carcinoma MX-1 Xenograft (intrarenal inoculation) in NU/NU Swiss (nude) mice
Conditions: endpoint: mean tumor weight change, higher = larger tumour
Protocol: The antitumor activity of compounds was measured in mice bearing transplantable tumors. Survival or tumor size were measured and the results are expressed as the measurement made in the treated group (T) divided by the measurement made in the vehicle treated control group (C). The tumor model used in this assay is Human Mammary Carcinoma MX-1 Xenograft (intrarenal inoculation) in NU/NU Swiss (nude) mice

[1] = dose: 1200.0 mg/kg/injection, schedule: Q04DX003 (sc), vehicle: water
[2] = dose: 3.0 mg/kg/injection, schedule: Q01DX010 (sc), vehicle: saline
[3] = dose: 12.5 mg/kg/injection, schedule: Q04DX003 (sc), vehicle: water
[4] = dose: 12.5 mg/kg/injection, schedule: Q01DX010 (sc), vehicle: saline
[5] = dose: 37.5 mg/kg/injection, schedule: Q04DX003 (sc), vehicle: saline with Tween-80
[6] = dose: 75.0 mg/kg/injection, schedule: Q04DX003 (sc), vehicle: saline with Tween-80
[7] = dose: 150.0 mg/kg/injection, schedule: Q04DX003 (sc), vehicle: saline with Tween-80
[8] = dose: 6.25 mg/kg/injection, schedule: Q04DX003 (sc), vehicle: saline with Tween-80

**Q.** `O=S(=O)(O)c1cc(N=C=S)ccc1/C=C/c1ccc(N=C=S)cc1S(=O)(=O)O` was tested. Which T/C (dose: 150.0 mg/kg/injection, schedule: Q04DX003 (ip), vehicle: saline) did it give?
**A.** 47 % of control

**Q.** With `NC(=O)Oc1cccc(OC(N)=O)c1` as the compound, how does the T/C (dose: 300.0 mg/kg/injection, schedule: Q04DX003 (sc), vehicle: water) read?
**A.** 68 % of control

**Q.** What about the T/C (dose: 600.0 mg/kg/injection, schedule: Q04DX003 (sc), vehicle: water) of the same compound?
**A.** 101 % of control

**Q.** What about the T/C [1] of the same compound?
**A.** 53 % of control

**Q.** Which T/C (dose: 25.0 mg/kg/injection, schedule: Q04DX003 (sc), vehicle: suspension in saline) does the source give for `NC(=O)c1ncn2c(=O)n(CCCl)nnc12` here?
**A.** 69 % of control

**Q.** What about the T/C (dose: 50.0 mg/kg/injection, schedule: Q04DX003 (sc), vehicle: suspension in saline) of the same compound?
**A.** 30 % of control

**Q.** How did the T/C (dose: 75.0 mg/kg/injection, schedule: Q04DX003 (sc), vehicle: Klucel (hydroxypropylcellulose) (HPC)) turn out when `CC(C)NC(=O)N(CCCCBr)N=O` was run?
**A.** 42 % of control and 47 % of control

**Q.** And the T/C (dose: 300.0 mg/kg/injection, schedule: Q04DX003 (sc), vehicle: Klucel (hydroxypropylcellulose) (HPC))?
**A.** 40 % of control

**Q.** Which results are given for `COC1C(O)CC(OC2CC(OC3CC(O[C@@H]4C(=O)c5c(cc6cc(OC7CC(OC8CC(O)C(O)C(C)O8)C(O)C(C)O7)c(C)c(O)c6c5O)C[C@H]4[C@H](OC)C(=O)[C@@H](O)[C@@H](C)O)OC(C)C3O)OC(C)C2O)OC1C` (some centres not stated)?
**A.** T/C (dose: 0.18 mg/kg/injection, schedule: Q01DX010 (sc), vehicle: saline): 99 % of control; T/C (dose: 0.37 mg/kg/injection, schedule: Q04DX003 (sc), vehicle: saline): 123 % of control; T/C (dose: 0.75 mg/kg/injection, schedule: Q04DX003 (sc), vehicle: saline): 90 % of control; T/C (dose: 1.5 mg/kg/injection, schedule: Q04DX003 (sc), vehicle: saline): 61 % of control; T/C [2]: -93 % of control; T/C (dose: 3.0 mg/kg/injection, schedule: Q04DX003 (sc), vehicle: saline): 35 % of control

**Q.** For `CNc1nc(N(C)C)nc(N(C)C)n1`, which T/C [3] is on record?
**A.** 59 % of control

**Q.** And the T/C (dose: 25.0 mg/kg/injection, schedule: Q04DX003 (sc), vehicle: water)?
**A.** 60 % of control

**Q.** And the T/C (dose: 30.0 mg/kg/injection, schedule: Q01DX010 (sc), vehicle: water)?
**A.** 24 % of control

**Q.** What about the T/C (dose: 50.0 mg/kg/injection, schedule: Q04DX003 (sc), vehicle: water) of the same compound?
**A.** 34 % of control

**Q.** And the T/C (dose: 60.0 mg/kg/injection, schedule: Q01DX010 (sc), vehicle: water)?
**A.** 3 % of control

**Q.** What about the T/C (dose: 100.0 mg/kg/injection, schedule: Q04DX003 (sc), vehicle: water) of the same compound?
**A.** 10 % of control

**Q.** And the T/C (dose: 120.0 mg/kg/injection, schedule: Q01DX010 (sc), vehicle: water)?
**A.** -63 % of control

**Q.** How did the T/C [4] turn out when `COC1N(C2CC(O)C(CO)O2)C(=O)NC(=O)C1(F)Br` (configuration not stated) was run?
**A.** 117 % of control

**Q.** What does the source list for `Nc1nc2c(C(=O)N3CCCC3)nnn2c2ccccc12`?
**A.** T/C [5]: 35 % of control; T/C [6]: 74 % of control; T/C [7]: 49 % of control

**Q.** For `COc1cc(NCCCCCCCNC(C)C)c2nccc(C)c2c1`, which T/C (dose: 37.5 mg/kg/injection, schedule: Q04DX003 (sc), vehicle: saline) is on record?
**A.** 93 % of control

**Q.** And the T/C (dose: 75.0 mg/kg/injection, schedule: Q04DX003 (sc), vehicle: saline)?
**A.** 76 % of control

**Q.** And the T/C (dose: 150.0 mg/kg/injection, schedule: Q04DX003 (sc), vehicle: saline)?
**A.** 66 % of control

**Q.** Which T/C (dose: 3.12 mg/kg/injection, schedule: Q04DX003 (sc), vehicle: water) does the source give for `COc1ccc(-c2csc(=[N+]3CCCCC3)s2)cc1` here?
**A.** 89 % of control

**Q.** And the T/C (dose: 6.25 mg/kg/injection, schedule: Q04DX003 (sc), vehicle: water)?
**A.** 85 % of control

**Q.** What about the T/C [3] of the same compound?
**A.** 89 % of control

**Q.** Which T/C (dose: 3.12 mg/kg/injection, schedule: Q04DX003 (sc), vehicle: saline with Tween-80) does the source give for `O=C1C=C[C@H](O)[C@@]2(CO)O[C@@H]12` here?
**A.** 106 % of control

**Q.** What about the T/C [8] of the same compound?
**A.** 85 % of control

**Q.** What does the source list for `C[CH2][Sn]([CH2]C)([O]S(C)(=O)=O)[O]S(C)(=O)=O`?
**A.** T/C [8]: 83 % of control; T/C (dose: 12.5 mg/kg/injection, schedule: Q04DX003 (sc), vehicle: saline with Tween-80): 95 % of control; T/C (dose: 25.0 mg/kg/injection, schedule: Q04DX003 (sc), vehicle: saline with Tween-80): 95 % of control

**Q.** For `CCCCCCCCCCCCCCCC(=O)Nc1ccn(C2OC(CO)C(O)C2O)c(=O)n1` (configuration not stated), which T/C [1] is on record?
**A.** -65 % of control and -50 % of control

**Q.** With `O=C([O][Bi]([c]1ccccc1)[c]1ccccc1)c1ccccc1` as the compound, how does the T/C (dose: 25.0 mg/kg/injection, schedule: Q04DX003 (ip), vehicle: Klucel (hydroxypropylcellulose) (HPC)) read?
**A.** 91 % of control

**Q.** What about the T/C (dose: 50.0 mg/kg/injection, schedule: Q04DX003 (ip), vehicle: Klucel (hydroxypropylcellulose) (HPC)) of the same compound?
**A.** 78 % of control

**Q.** And the T/C (dose: 100.0 mg/kg/injection, schedule: Q04DX003 (ip), vehicle: Klucel (hydroxypropylcellulose) (HPC))?
**A.** 64 % of control

**Q.** Which results are given for `NC(=O)/C=C/C(=O)c1c(Cl)cccc1Cl`?
**A.** T/C (dose: 9.0 mg/kg/injection, schedule: Q04DX003 (sc), vehicle: saline with Tween-80): 78 % of control; T/C (dose: 36.0 mg/kg/injection, schedule: Q04DX003 (sc), vehicle: saline with Tween-80): 43 % of control

**Q.** With `COC(C(=O)C(O)C(C)O)C1Cc2cc3cc(OC4CC(OC(C)=O)C(OC5CC(O)C(OC)C(C)O5)C(C)O4)cc(O)c3c(O)c2C(=O)C1OC1CC(OC2CC(OC3CC(C)(O)C(OC(=O)C(C)C)C(C)O3)C(O)C(C)O2)C(O)C(C)O1` (configuration not stated) as the compound, how does the T/C (dose: 1.0 mg/kg/injection, schedule: Q04DX003 (sc), vehicle: saline with Tween-80) read?
**A.** 47 % of control

**Q.** What about the T/C (dose: 1.5 mg/kg/injection, schedule: Q04DX003 (sc), vehicle: saline with Tween-80) of the same compound?
**A.** 11 % of control and 26 % of control and 28 % of control

**Q.** What about the T/C (dose: 2.0 mg/kg/injection, schedule: Q04DX003 (sc), vehicle: saline with Tween-80) of the same compound?
**A.** 49 % of control

**Q.** What about the T/C (dose: 4.0 mg/kg/injection, schedule: Q04DX003 (sc), vehicle: saline with Tween-80) of the same compound?
**A.** 13 % of control

**Q.** What about the T/C (dose: 8.0 mg/kg/injection, schedule: Q04DX003 (sc), vehicle: saline with Tween-80) of the same compound?
**A.** -79 % of control

**Q.** How did the T/C (dose: 1.5 mg/kg/injection, schedule: Q04DX003 (sc), vehicle: Klucel (hydroxypropylcellulose) (HPC)) turn out when `C[C@H](N)C(=O)N[C@@H]1[C@H]2C(=C(O)C[C@@H](O)[C@@H]2O)C(=O)O[C@]1(C)C(Cl)Cl` was run?
**A.** 153 % of control

**Q.** And the T/C (dose: 6.0 mg/kg/injection, schedule: Q04DX003 (sc), vehicle: Klucel (hydroxypropylcellulose) (HPC))?
**A.** 92 % of control

**Q.** What does the source list for `CCCCCc1cc(O)c2c(c1)OC(C)(C)[C@@H]1CCC(C)=C[C@@H]21`?
**A.** T/C (dose: 150.0 mg/kg/injection, schedule: Q04DX003 (sc), vehicle: other): 82 % of control; T/C (dose: 300.0 mg/kg/injection, schedule: Q04DX003 (sc), vehicle: other): 81 % of control; T/C (dose: 1200.0 mg/kg/injection, schedule: Q04DX003 (sc), vehicle: other): 83 % of control

**Q.** For `O=c1[nH]c(=O)c2nc(-c3cccnc3)cnc2[nH]1`, which T/C (dose: 200.0 mg/kg/injection, schedule: Q04DX003 (sc), vehicle: Klucel (hydroxypropylcellulose) (HPC)) is on record?
**A.** 36 % of control

**Q.** `O=C(O)C1CSCN1` (configuration not stated) was tested. Which T/C (dose: 50.0 mg/kg/injection, schedule: Q01DX010 (sc), vehicle: water) did it give?
**A.** 176 % of control

**Q.** How did the T/C [5] turn out when `COc1ccc(S(=O)(=O)N=N/C=C2\C=CC=CN2O)cc1OC` was run?
**A.** 81 % of control

**Q.** And the T/C [6]?
**A.** 61 % of control

**Q.** What about the T/C [7] of the same compound?
**A.** 47 % of control

**Q.** And the T/C (dose: 300.0 mg/kg/injection, schedule: Q04DX003 (sc), vehicle: saline with Tween-80)?
**A.** 64 % of control

**Q.** With `COc1ccc(C(=O)/C(Br)=C/C(=O)O)cc1` as the compound, how does the T/C [4] read?
**A.** 110 % of control

**Q.** And the T/C (dose: 25.0 mg/kg/injection, schedule: Q01DX010 (sc), vehicle: saline)?
**A.** 63 % of control

**Q.** What about the T/C (dose: 50.0 mg/kg/injection, schedule: Q01DX010 (sc), vehicle: saline) of the same compound?
**A.** 98 % of control

**Q.** Which T/C (dose: 50.0 mg/kg/injection, schedule: Q01DX010 (sc), vehicle: saline with Tween-80) does the source give for `O=c1cc(CCl)[nH]nc1CCl` here?
**A.** 77 % of control

**Q.** What about the T/C (dose: 100.0 mg/kg/injection, schedule: Q01DX010 (sc), vehicle: saline with Tween-80) of the same compound?
**A.** 42 % of control

**Q.** Which T/C (dose: 300.0 mg/kg/injection, schedule: Q04DX003 (sc), vehicle: saline) does the source give for `Nc1cccc(=O)[nH]1` here?
**A.** 92 % of control

**Q.** What about the T/C (dose: 600.0 mg/kg/injection, schedule: Q04DX003 (sc), vehicle: saline) of the same compound?
**A.** 95 % of control

**Q.** What about the T/C (dose: 1200.0 mg/kg/injection, schedule: Q04DX003 (sc), vehicle: saline) of the same compound?
**A.** 102 % of control

**Q.** Which T/C [2] does the source give for `O=C1NC2(CCCCC2)C(=O)N1CCN(CCCl)CCCl` here?
**A.** 48 % of control
